The values that follow come from ChEMBL document CHEMBL1152751, “2,5-Disubstituted tetrahydrofurans as selective serotonin re-uptake inhibitors” (Bioorg Med Chem, 2009).

In series [1] the test system is Mus musculus. Kind of series: Antidepressant activity in ICR mouse assessed as change in duration of immobility at 10 mg/kg, ip pretreated 30 mins before test by forced swimming test. Set-up: dose 10 mg/kg. It counts as functional, organism-based.
Series [2] can be described thus: Metabolic stability assessed as half life in mouse liver microsomes. The format is ADME, Microsome.
Series [3] deals with T1, Sodium-dependent dopamine transporter (Homo sapiens, UniProt Q01959). Kind of series: biochemical. The format is cell-based, HEK293.
Description: Displacement of [125I]RTI55 from human DAT expressed in HEK cells
Series [4] addresses T2, Sodium-dependent serotonin transporter (Homo sapiens, UniProt P31645). The experiment in a line: biochemical. The format is cell-based, HEK293.
Description: Displacement of [125I]RTI55 from human SERT expressed in HEK cells
Series [5] relates to Mus musculus. The experiment in a line: Antidepressant activity in BALB/c mouse assessed as decrease in duration of immobility at 10 mg/kg, ip pretreated 30 mins before test by forced swimming test. It counts as functional, organism-based. Set-up: dose 10 mg/kg.
For series [6], the system named is Mus musculus. The experiment in a line: Antidepressant activity in BALB/c mouse assessed as change in duration of immobility at 20 mg/kg, ip pretreated 30 mins before test by forced swimming test. The format is functional, organism-based. Set-up: dose 20 mg/kg.
Series [7] can be described thus: Metabolic stability assessed as half life in rat liver microsomes. It counts as ADME, Microsome.
Series [8] has as its target T3, Sodium-dependent noradrenaline transporter (Homo sapiens, UniProt P23975). The experiment in a line: biochemical. It counts as cell-based, HEK293.
Description: Displacement of [125I]RTI55 from human NET expressed in HEK cells
Series [9] addresses T3, Sodium-dependent noradrenaline transporter. The experiment in a line: Inhibition of [3H]norepinephrine reuptake at human NET expressed in HEK cells. The format is cell-based, HEK293.
Series [10] deals with T1, Sodium-dependent dopamine transporter. Kind of series: Inhibition of [3H]dopamine reuptake at human DAT expressed in HEK cells. The format is cell-based, HEK293.
Series [11] has as its target T2, Sodium-dependent serotonin transporter. Kind of series: Inhibition of [3H]serotonin reuptake at human SERT expressed in HEK cells. It counts as cell-based, HEK293.

Calls of active or inactive are those of the source. The rule behind the calls is not given here. Where only a bound is given, the exact number is not on record here.

T2 sequence (P31645 whole entry): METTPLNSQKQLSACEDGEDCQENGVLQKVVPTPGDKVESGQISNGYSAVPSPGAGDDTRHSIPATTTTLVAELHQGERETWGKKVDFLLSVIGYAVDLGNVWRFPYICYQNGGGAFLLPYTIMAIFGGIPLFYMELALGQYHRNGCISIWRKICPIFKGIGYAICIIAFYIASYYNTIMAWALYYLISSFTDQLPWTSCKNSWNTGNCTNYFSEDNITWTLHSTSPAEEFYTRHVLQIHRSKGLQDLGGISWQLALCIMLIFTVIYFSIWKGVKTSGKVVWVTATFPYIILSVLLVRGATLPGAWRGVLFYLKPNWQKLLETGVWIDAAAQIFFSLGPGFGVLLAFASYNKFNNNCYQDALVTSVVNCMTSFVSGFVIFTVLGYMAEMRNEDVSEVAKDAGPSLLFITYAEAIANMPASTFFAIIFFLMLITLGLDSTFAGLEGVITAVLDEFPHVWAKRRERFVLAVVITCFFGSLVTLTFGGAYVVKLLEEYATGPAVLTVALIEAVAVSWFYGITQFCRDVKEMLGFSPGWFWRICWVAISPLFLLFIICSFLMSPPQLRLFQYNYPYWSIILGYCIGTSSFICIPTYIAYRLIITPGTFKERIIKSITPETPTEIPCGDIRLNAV
T1 sequence (Q01959 whole entry): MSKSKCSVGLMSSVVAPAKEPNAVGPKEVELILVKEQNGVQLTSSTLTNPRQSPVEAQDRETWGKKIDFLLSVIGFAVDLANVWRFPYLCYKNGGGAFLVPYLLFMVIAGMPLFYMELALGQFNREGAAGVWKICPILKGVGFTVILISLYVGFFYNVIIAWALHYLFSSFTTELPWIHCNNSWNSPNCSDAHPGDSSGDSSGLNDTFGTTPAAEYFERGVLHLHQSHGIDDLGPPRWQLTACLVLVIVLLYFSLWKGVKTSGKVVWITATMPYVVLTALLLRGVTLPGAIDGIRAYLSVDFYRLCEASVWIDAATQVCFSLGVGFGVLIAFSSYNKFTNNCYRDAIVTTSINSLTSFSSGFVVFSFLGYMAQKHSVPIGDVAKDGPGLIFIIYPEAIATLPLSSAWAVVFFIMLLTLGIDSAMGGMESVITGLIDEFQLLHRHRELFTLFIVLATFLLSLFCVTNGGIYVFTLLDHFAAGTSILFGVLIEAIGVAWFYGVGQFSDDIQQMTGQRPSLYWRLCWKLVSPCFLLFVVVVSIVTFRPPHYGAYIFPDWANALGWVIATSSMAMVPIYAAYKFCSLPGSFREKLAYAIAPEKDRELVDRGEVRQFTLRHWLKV
T3 sequence (P23975 whole entry): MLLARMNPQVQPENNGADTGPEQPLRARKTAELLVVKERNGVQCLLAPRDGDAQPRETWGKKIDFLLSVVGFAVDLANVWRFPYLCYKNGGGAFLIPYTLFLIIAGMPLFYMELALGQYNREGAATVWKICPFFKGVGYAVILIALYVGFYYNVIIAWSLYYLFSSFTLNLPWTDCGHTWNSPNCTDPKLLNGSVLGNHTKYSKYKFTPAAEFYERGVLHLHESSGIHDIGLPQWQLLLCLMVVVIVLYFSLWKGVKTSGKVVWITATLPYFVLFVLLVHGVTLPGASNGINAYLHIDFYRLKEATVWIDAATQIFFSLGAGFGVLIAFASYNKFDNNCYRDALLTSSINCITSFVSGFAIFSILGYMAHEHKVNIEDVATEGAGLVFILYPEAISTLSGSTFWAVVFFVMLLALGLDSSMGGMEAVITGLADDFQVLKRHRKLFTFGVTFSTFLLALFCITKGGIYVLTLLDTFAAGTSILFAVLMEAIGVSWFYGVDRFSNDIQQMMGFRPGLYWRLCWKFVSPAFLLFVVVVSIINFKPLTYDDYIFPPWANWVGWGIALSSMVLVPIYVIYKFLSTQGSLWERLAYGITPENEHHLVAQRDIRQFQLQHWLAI

On to `COc1ccc(F)cc1CCC1CCC(CCN)O1` (configuration not stated), for which the outcome with Mus musculus [1] was inactive. Further, the half-life in series [2] was found to be 56 min.
For the molecule `CC(C)(C)c1ccc(C2CCC(CN)O2)cc1` (configuration not stated), the inhibitory constant (Ki) was more than 10 µM in series [3] and more than 10000 nM in [4].
`CNCCC(Oc1ccc(C(F)(F)F)cc1)c1ccccc1` (configuration not stated): the outcome in the series with Mus musculus [5] was Active. Also, the result in the series on Mus musculus [6] was inactive.
With `CNCCC1CCC(CCc2cc(F)ccc2OC)O1` (configuration not stated), the half-life was determined as 58.5 min in series [2] and 129 min in [7].
Turning to `NCCC1CCC(Cc2ccccc2)O1` (configuration not stated), the inhibition constant (Ki) in series [3] and in series [8] was more than 10 µM throughout.
Take `NCC1CCC(c2ccc(Br)cc2)O1` (configuration not stated): the inhibition constant Ki in series [8] is more than 10 µM.
In [9], `COc1ccc(F)cc1C[C@H]1CC[C@H](CCN)O1` (relative stereo) showed a half-maximal inhibitory concentration (IC50) of 1770 nM.
Turning to `COc1ccc(C2CCC(CN)O2)cc1` (configuration not stated), the inhibitory constant (Ki) in [3] is more than 10 µM.
On to `COc1ccc(F)cc1C[C@@H]1CC[C@H](CCN)O1` (relative stereo), for which the IC50 in series [9] was determined as 1860 nM.
`NCC1CCC(CCc2c(F)c(F)c(F)c(F)c2F)O1` (configuration not stated): the Ki in series [3] was more than 10 µM.
In series [10], `NCC1CCC(CCc2cccc3ccccc23)O1` (configuration not stated) gave a half-inhibitory concentration (IC50) of more than 10 µM. For the same molecule, the Ki was more than 10 µM in [3], 18 nM in series [4] and more than 10 µM in series [8].
In the case of `NCC1CCC(c2ccc3ccccc3c2)O1` (configuration not stated), the Ki in [8] is more than 10 µM. Also, in series [11], the concentration for half-maximal inhibition (IC50) came to 4 nM.
Turning to `COc1ccc(F)cc1[C@@H]1CC[C@H](CCN)O1` (relative stereo), in [10], the IC50 was more than 10 µM. Moreover, in [3], the inhibition constant Ki was more than 10 µM.
`COc1ccc(CCC2CCC(CCN)O2)c2ccccc12` (configuration not stated): the Ki in series [3] and in series [8] was more than 10 µM each time.
With `COc1ccc(F)cc1CCCC1CCC(CCN)O1` (mixture of isomers), the result in the series with Mus musculus [5] was inactive.
In series [3], `COc1ccc(F)cc1CC[C@H]1CC[C@H](CN)O1` returned an inhibition constant Ki of 14.5 µM.
As to `COc1ccc2ccccc2c1CCC1CCC(CCN)O1` (configuration not stated), the Ki in series [3] and in [8] was more than 10 µM throughout.
In the case of `COc1ccc(F)cc1CCC[C@@H]1CC[C@H](CN)O1` (relative stereo), the IC50 in [10] turned out to be 6.29 µM; in series [11], 2.6 nM. Besides, the inhibition constant Ki in [3] was 4.58 µM; in series [4], 2.8 nM.
For `COc1ccc(F)cc1CCCC[C@H]1CC[C@H](CN)O1` (relative stereo), in that order: 16.5 µM, 84 nM, 3.87 µM and 4 nM.
On to `NCCC1CCC(c2ccco2)O1` (configuration not stated), for which the 50% inhibitory concentration (IC50) in series [10] is more than 10 µM; in series [11] it was more than 10000 nM; in series [9] it was more than 10000 nM. For the same molecule, the Ki is more than 10 µM in [3], more than 10000 nM in series [4] and more than 10 µM in [8].
Molecule `COc1ccc(F)cc1[C@H]1CC[C@H](CN)O1` (relative stereo) displayed an IC50 in [10] of more than 10 µM. Moreover, in series [3], the Ki is more than 10 µM.
Molecule `COc1ccc(F)cc1C[C@@H]1CC[C@H](CN)O1` (relative stereo) displayed an IC50 in [10] of 18.7 µM.
The molecule `COc1ccc(F)cc1[C@H]1CC[C@H](CCN)O1` came in with an IC50 in series [10] of more than 10 µM. For the same molecule, the Ki in series [3] is 32.9 µM.
`COc1ccc(F)cc1C1CCC(CN)O1` (configuration not stated) yielded an IC50 in series [10] of more than 10 µM.
In series [10], `COc1ccc(F)cc1C[C@H]1CC[C@H](CN)O1` (relative stereo) registered an IC50 of 28.9 µM.
With `NCC1CCC(CCc2cccnc2)O1` (configuration not stated), the IC50 in series [10] is more than 10 µM; in series [11], 2720 nM; in series [9], more than 10000 nM. For the same molecule, the Ki in [3] was more than 10 µM.
Take `COc1ccc(F)cc1CCC[C@H]1CC[C@H](CN)O1` (relative stereo): the IC50 in series [10] is 7.62 µM; in [11], 2.1 nM. This molecule returned an inhibition constant (Ki) in series [4] of 0.8 nM.
